Where two headings read alike, the source gives them in different places.
Key:
[1] = target: His6-ERα298-554 WT (ERα ligand-binding domain) (Homo sapiens (Human), UniProt P03372); assay: Test A: biochemical antagonist activity, LanthaScreen TR-FRET ERα coactivator assay, WT; conditions: read-out: Antagonism WT IC50
In short: (§1)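 His6-ERα LBD (0.5 nM) with 0.5 nM Tb-anti-His6 antibody, 250 nM PGC1a peptide and 3 nM (or 10 nM) estradiol in 100 mM potassium phosphate pH 7.4 with 5 mM DTT, incubated overnight at room temperature with compound.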

[2] = target: His6-ERα298-554 D538G mutant (ERα ligand-binding domain) (Homo sapiens (Human), UniProt P03372, D538G); assay: Test A: biochemical antagonist activity, LanthaScreen TR-FRET ERα coactivator assay, D538G mutant; conditions: read-out: Antagonism D538G IC50
In short: as §1

[3] = target: His6-ERα298-554 Y537S mutant (ERα ligand-binding domain) (Homo sapiens (Human), UniProt P03372, Y537S); assay: Test A: biochemical antagonist activity, LanthaScreen TR-FRET ERα coactivator assay, Y537S mutant; conditions: read-out: Antagonism Y537S IC50
In short: as §1

[4] = system: MCF7 cells (breast tumor cells) WT; assay: Test B: cell proliferation/viability assay (CellTiter-Glo) on MCF7 WT; format: cell-based; conditions: Homo sapiens, MCF7, 168 h, 7 days of compound exposure
In short: (§2)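 Seven-day compound exposure, 9 concentrations from 3 to 0.000001 μM, in phenol red-free medium with 5% charcoal-stripped serum. ER Tyr537Ser and Asp538Gly lines derive from transfected MCF7 selected to grow without estradiol. Viability from CellTiter-Glo luminescence, background-corrected, as percent of untreated.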

[5] = system: MCF7 cells expressing mutant estrogen receptor Tyr 537 Ser; assay: Test B: cell proliferation/viability assay (CellTiter-Glo) on MCF7 Tyr 537 Ser mutant; format: cell-based; conditions: Homo sapiens, MCF7, 168 h, MCF7 cells expressing ER Tyr 537 Ser mutant, 7 days of compound exposure, read-out: proliferation MCF7 Y537S IC50
In short: as §2

[6] = system: MCF7 cells expressing mutant estrogen receptor Asp 538 Gly; assay: Test B: cell proliferation/viability assay (CellTiter-Glo) on MCF7 Asp 538 Gly mutant; format: cell-based; conditions: Homo sapiens, MCF7, 168 h, MCF7 cells expressing ER Asp 538 Gly mutant, 7 days of compound exposure, read-out: proliferation MCF7 D538G IC50
In short: as §2

[7] = target: ERα in MCF7 cells (Homo sapiens (Human), UniProt P03372); assay: Test C: estrogen receptor degradation activity, ERα in cell western assay in MCF7 cells; format: cell-based; conditions: for DC50: 4 hours post compound addition, ERα in cell western, read-out: Degradation IC50; for % Degradation at 3 μM: 4 hours, relative to fulvestrant
In short: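 In-cell western: ERα level (green) against DNA stain Syto-64 (red) by integrated intensity. MCF7 cells in hormone-depleted medium exposed 4 h to compound at 3-0.000018 μM final (1:5 series); fulvestrant 0.1 μM as positive control.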

[8] = asterisk (*): protocol using 10 nM estradiol

Chain of His6-ERα298-554 WT (ERα ligand-binding domain) (P03372 298-554): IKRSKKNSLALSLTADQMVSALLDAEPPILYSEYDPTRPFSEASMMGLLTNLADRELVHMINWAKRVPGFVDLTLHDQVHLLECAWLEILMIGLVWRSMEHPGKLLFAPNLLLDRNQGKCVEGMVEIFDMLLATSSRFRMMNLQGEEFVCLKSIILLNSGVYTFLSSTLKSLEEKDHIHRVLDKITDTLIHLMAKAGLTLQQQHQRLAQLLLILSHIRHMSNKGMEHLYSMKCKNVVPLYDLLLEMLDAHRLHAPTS
Chain of His6-ERα298-554 D538G mutant (ERα ligand-binding domain) (P03372 298-554 D538G): as the sequence (P03372 298-554) above, with D241G counted along it
Chain of ERα in MCF7 cells (P03372 whole entry): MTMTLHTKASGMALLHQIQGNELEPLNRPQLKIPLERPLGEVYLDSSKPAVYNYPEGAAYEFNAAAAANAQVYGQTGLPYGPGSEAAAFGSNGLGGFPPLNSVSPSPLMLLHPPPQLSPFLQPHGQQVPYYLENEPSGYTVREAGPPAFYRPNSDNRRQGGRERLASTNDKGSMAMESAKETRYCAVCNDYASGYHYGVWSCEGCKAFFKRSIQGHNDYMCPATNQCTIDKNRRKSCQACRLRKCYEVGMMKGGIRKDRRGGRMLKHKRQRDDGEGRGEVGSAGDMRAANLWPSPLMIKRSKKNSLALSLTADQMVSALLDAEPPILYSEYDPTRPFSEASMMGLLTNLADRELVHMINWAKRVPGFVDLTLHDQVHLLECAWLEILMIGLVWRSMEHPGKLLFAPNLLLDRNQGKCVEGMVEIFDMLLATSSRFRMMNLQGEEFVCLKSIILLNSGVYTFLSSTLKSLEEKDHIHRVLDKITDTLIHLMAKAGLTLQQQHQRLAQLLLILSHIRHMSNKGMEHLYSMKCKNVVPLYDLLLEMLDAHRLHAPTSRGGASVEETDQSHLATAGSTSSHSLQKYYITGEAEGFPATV
Chain of His6-ERα298-554 Y537S mutant (ERα ligand-binding domain) (P03372 298-554 Y537S): as the sequence (P03372 298-554) above, with Y240S counted along it

SMILES | IC50 [1, 8] [nM] | IC50 [2, 8] [nM] | IC50 [3, 8] [nM] | IC50 [4] [nM] | IC50 [5] [nM] | IC50 [6] [nM] | DC50 [7] [nM] | % Degradation at 3 μM [7] [%] | IC50 ([1]; protocol with 3 nM estradiol) [nM] | IC50 ([2]; protocol with 3 nM estradiol) [nM] | IC50 ([3]; protocol with 3 nM estradiol) [nM]
CCOc1nccc(C2=C(c3ccc(O[C@H]4CCN(CCCF)C4)cc3)c3ccc(O)cc3SC2)c1Cl [Example 53, 3-(3-chloro-2-ethoxy-4-pyridyl)-4-[4-[(3S)-1-(3-fluoropropyl)pyrrolidin-3-yl]oxyphenyl]-2H-thiochromen-7-ol] | 2 | 36 | 25 | 0.2 | 5 | 0.2 | 0.2 | 84 |  |  | 
Oc1ccc2c(c1)SCC(c1ccc(O)nc1F)=C2c1ccc(O[C@H]2CCN(CCCF)C2)cc1 [Example 46, 6-fluoro-5-[4-[4-[(3S)-1-(3-fluoropropyl)pyrrolidin-3-yl]oxyphenyl]-7-hydroxy-2H-thiochromen-3-yl]pyridin-2-ol] | 5 | 101 | 59 | 0.1 | 2 | 0.5 | 0.2 | 83 |  |  | 
Oc1ccc2c(c1)SCCC(c1ccc(OC(F)(F)F)c(F)c1)=C2c1ccc(O[C@H]2CCN(CCCF)C2)cc1 [Example 190, 5-[4-[(3S)-1-(3-fluoropropyl)pyrrolidin-3-yl]oxyphenyl]-4-[3-fluoro-4-(trifluoromethoxy)phenyl]-2,3-dihydro-1-benzothiepin-8-ol] | 39 | 638 | 425 | 0.2 | 6 | 0.8 | 0.5 | 91 |  |  | 
Oc1ccc2c(c1)OCCC(c1ccc(Cl)cc1Cl)=C2c1ccc(O[C@H]2CCN(CCCF)C2)cc1 [Example 102, 4-(2,4-dichlorophenyl)-5-[4-[(3S)-1-(3-fluoropropyl)pyrrolidin-3-yl]oxyphenyl]-2,3-dihydro-1-benzoxepin-8-ol] |  |  |  | 0.5 | 5 | 0.8 | 2 | 87 | 12 | 106 | 51
O=C1COc2ccc(C3=C(c4ccc(O[C@H]5CCN(CCCF)C5)cc4)c4ccc(O)cc4SC3)cc2N1 [Example 38, 6-[4-[4-[(3S)-1-(3-fluoropropyl)pyrrolidin-3-yl]oxyphenyl]-7-hydroxy-2H-thiochromen-3-yl]-4H-1,4-benzoxazin-3-one] | 604 | > 4000 | 3710 | 12 | > 999 | 16 | 12 | 86 |  |  | 
CONC(=O)c1cc(C2=C(c3ccc(O[C@H]4CCN(CCCF)C4)cc3)c3ccc(O)cc3SCC2)ccc1F [Example 199, 2-fluoro-5-[5-[4-[(3S)-1-(3-fluoropropyl)pyrrolidin-3-yl]oxyphenyl]-8-hydroxy-2,3-dihydro-1-benzothiepin-4-yl]-N-methoxy-benzamide] | 21 | 456 | 316 | 0.2 | 4 | 0.2 | 0.4 | 94 |  |  | 
Cc1c(Cl)cccc1C1=C(c2ccc(O[C@H]3CCN(CCCF)C3)cc2)c2ccc(O)c(F)c2OCC1 [Example 105, 4-(3-chloro-2-methyl-phenyl)-9-fluoro-5-[4-[(3S)-1-(3-fluoropropyl)pyrrolidin-3-yl]oxyphenyl]-2,3-dihydro-1-benzoxepin-8-ol] |  |  |  | 0.5 | 11 | 2 | 0.2 | 91 | 5 | 38 | 23
Oc1ccc2c(c1)SCC(c1ccc3ncccc3c1)=C2c1ccc(O[C@H]2CCN(CCCF)C2)cc1 [Example 67, 4-[4-[(3S)-1-(3-fluoropropyl)pyrrolidin-3-yl]oxyphenyl]-3-(6-quinolyl)-2H-thiochromen-7-ol] | 120 | 1810 | 1280 | 12 | 86 | 16 | 1 | 90 |  |  | 
Oc1cc2c(cc1F)C(c1ccc(O[C@H]3CCN(CCCF)C3)cc1)=C(c1ccc3c(c1)CCN3)CCO2 [Example 142, 7-fluoro-5-[4-[(3S)-1-(3-fluoropropyl)pyrrolidin-3-yl]oxyphenyl]-4-indolin-5-yl-2,3-dihydro-1-benzoxepin-8-ol] |  |  |  | 8 | 154 | 34 | 2 | 83 | 41 | 1820 | 1150
Nc1ccc(C2=C(c3ccc(O[C@H]4CCN(CCCF)C4)cc3)c3ccc(O)cc3SCC2)c(F)n1 [Example 223, 4-(6-amino-2-fluoro-3-pyridyl)-5-[4-[(3S)-1-(3-fluoropropyl)pyrrolidin-3-yl]oxyphenyl]-2,3-dihydro-1-benzothiepin-8-ol] | 2 | 42 | 24 | 1 | 0.1 | 0.2 | 0.2 | 85 |  |  | 
Oc1ccc2c(c1)OCCC(c1ccc(Cl)cc1F)=C2c1ccc(O[C@H]2CCN(CCCF)C2)cc1 [Example 98, 4-(4-chloro-2-fluoro-phenyl)-5-[4-[(3S)-1-(3-fluoropropyl)pyrrolidin-3-yl]oxyphenyl]-2,3-dihydro-1-benzoxepin-8-ol] |  |  |  | 0.5 | 5 | 2 | 0.5 | 93 | 14 | 106 | 40
COc1c(C(=O)O)cccc1C1=C(c2ccc(O[C@H]3CCN(CCCF)C3)cc2)c2ccc(O)cc2OCC1 [Example 148, 3-[5-[4-[(3S)-1-(3-fluoropropyl)pyrrolidin-3-yl]oxyphenyl]-8-hydroxy-2,3-dihydro-1-benzoxepin-4-yl]-2-methoxy-benzoic acid] | > 4000 | > 4000 | > 4000 | 222 | > 999 | 314 | 448 | 77 |  |  | 
CCOc1cc(F)c(C2=C(c3ccc(O[C@H]4CCN(CCCF)C4)cc3)c3ccc(O)cc3SCC2)cc1F [Example 220, 4-(4-ethoxy-2,5-difluoro-phenyl)-5-[4-[(3S)-1-(3-fluoropropyl)pyrrolidin-3-yl]oxyphenyl]-2,3-dihydro-1-benzothiepin-8-ol] | 8 | 164 | 84 | 0.4 | 5 | 0.5 | 0.2 | 89 |  |  | 
COc1ccc(C2=C(c3ccc(O[C@H]4CCN(CCCF)C4)cc3)c3ccc(O)cc3SCC2)c(F)c1 [Example 189, 4-(2-fluoro-4-methoxy-phenyl)-5-[4-[(3S)-1-(3-fluoropropyl)pyrrolidin-3-yl]oxyphenyl]-2,3-dihydro-1-benzothiepin-8-ol] | 2 | 31 | 19 | 0.2 | 4 | 1 | 0.3 | 88 |  |  | 
CCOc1ccc(C2=C(c3ccc(O[C@H]4CCN(CCCF)C4)cc3)c3ccc(O)cc3SC2)c(F)c1Cl [Example 63, 3-(3-chloro-4-ethoxy-2-fluoro-phenyl)-4-[4-[(3S)-1-(3-fluoropropyl)pyrrolidin-3-yl]oxyphenyl]-2H-thiochromen-7-ol] | 318 | > 4000 | 2450 | 5 | > 999 | 5 | 0.3 | 86 |  |  | 
Oc1ccc2c(c1)C(c1ccc(O[C@H]3CCN(CCCF)C3)cc1)=C(c1ccc(SC(F)(F)F)cc1)CC2 [Example 9, 8-[4-[(3S)-1-(3-fluoropropyl)pyrrolidin-3-yl]oxyphenyl]-7-[4-(trifluoromethylsulfanyl)phenyl]-5,6-dihydronaphthalen-2-ol] | 2290 | > 4000 | > 4000 | 44 | > 999 | 47 | 28 | 79 |  |  | 

— patent publication US11149031B2, “Substituted N-(3-fluoropropyl)-pyrrolidine compounds, processes for their preparation and therapeutic uses thereof” (SANOFI, priority 2016, dated 2021)
